The text below walks through data of article PMC2009384, “The carcinogenicity of polycyclic hydrocarbon epoxides in newborn mice” (British Journal of Cancer, 1975).

The data set concerns newborn Swiss mice. In words: Experiment II: carcinogenicity in newborn mice, chrysene, 7-methylbenz(a)anthracene and K region epoxides (s.c. injection, tumour incidence to 70-75 weeks). The settings on record: for incidence of lung tumours: 7-methylbenz(a)anthracene pair. The source says: Br. J. Cancer (1975) 31, 182 THE CARCINOGENICITY OF POLYCYCLIC HYDROCARBON EPOXIDES IN NEWBORN MICE P. L. GROVER, P. SIMS, B. C. V. MITCHLEY AND F. J. C. ROE From the Chester Beatty Research Institute, Institute of Cancer Research, Royal Cancer Hospital, Fulham Road, London, SW3 6JB Received 9 August 1974. […] THE HYPOTHESIS that the carcino- genicity of polycyclic hydrocarbons is associated with the formation of epoxide metabolites (Grover, Hewer and Sims, 1971, 1972; Keysell et al., 1973) is sup- ported by some experimental evidence but remains unproven. […] The epoxides can also act as alkylating agents (Grover and Sims, 1970) and as mutagens (Ames, Sims and Grover, 1972; Huberman et al., 1971; Cookson, Sims and Grover, 1971; Fahmy and Fahmy, 1973). […] The newborn mouse, which is susceptible to carcinogenic polycyclic hydrocarbons (Roe, Rowson and Salaman, 1961; Roe, Mitchley and Walters, 1963; Walters and Roe, 1964, 1966) can be considered as a convenient source of several types of rapidly dividing cells. Consequently we have tested the K region epoxides derived from phenanthrene, benz(a)anthracene, 7-methylbenz(a)anthracene, dibenz(a,h)- anthracene, chrysene and 3-methylchol- anthrene, together with some of the CARCINOGENICITY OF POLYCYCLIC HYDROCARBON EPOXIDES IN MICE 183 parent hydrocarbons, for carcinogenicity using newborn mice. This paper presents the results that were obtained in these experiments. MATERIALS AND METHODS The polycyclic hydrocarbon epoxides, phenanthrene 9,10-oxide, benz(a)anthracene 5,6-oxide, 7-methylbenz(a)anthracene 5,6- oxide, dibenz(a,h)anthracene 5,6-oxide, chry- sene 5,6-oxide and 3-methylcholanthrene 11,12-oxide were prepared from the parent hydrocarbons (Newman and Blum, 1964; Boyland and Sims, 1965; Sims 1966). Two experiments were undertaken fol- lowing similar protocols. For each experi- ment Swiss mice from a specific pathogen- free colony were time mated so as to produce a large number of litters over the course of 2 or 3 days. […] Test compounds were suspended in poly- ethylene glycol (PEG) 400 and injections of 0-02 ml of the suspension were given by introducing a 25 gauge hypodermic needle through the skin near the root of the tail and threading it subcutaneously to deliver the injected material in the interscapular region. Injections were given to every mouse on the first day or first 3 days of life. The details of treatments and numbers of mice of each sex in each group are shown in Table I (Experiment I) and Table II (Ex- periment II). Surviving mice were weaned when they w ere 21 days old. Thereafter, males and females w ere separated and housed 6 per cage in metal boxes. A mixture of sawdust and wood shavings was used as bedding. The mice were fed on a standard cubed diet (Formulation 86 from C. Holdman and Sons (Plow co Feeds), Byers Lane, South Godstone, Surrey) and water was given ad libitum. Mice were inspected daily, and at weekly intervals they were weighed and palpated for tumours and other lesions. […] The experiment was terminated when surviving mice were between 70 and 75 weeks old. A full routine post- mortem examination, which included disten- sion of the urinary bladder with fixative, was carried out. The number of lesions thought to be neoplasms and the size of the largest such lesion in each organ affected were recorded. All tissues with suspected neoplasms were fixed in Bouin's solution. Haematoxylin and eosin stained 5 µm paraffin wax sections were prepared and examined microscopically. RESULTS The results of the two experiments in terms of tumour incidence are sum- marized in […].

Where [1] appears, read: females, 60 µg, 1 treatment (Day 0 only) s.c. in PEG 400.
Where [2] appears, read: males, 60 µg, 1 treatment (Day 0 only) s.c. in PEG 400.
The mark [3] stands for this setting: females, 100 µg per treatment, 3 treatments.
Setting [4] is: females, 100 µg per treatment, 3 treatments (Days 0, 1 and 2) s.c. in PEG 400.
Where [5] appears, read: males, 100 µg per treatment, 3 treatments.
Setting [6] is: males, 100 µg per treatment, 3 treatments (Days 0, 1 and 2) s.c. in PEG 400.

As for `Cc1ccc2cc3c(c4c2c1CC4)C1OC1c1ccccc1-3` (stereo not drawn) [3-Methylcholanthrene 11,12-oxide], under “females, 60 µg, 1 treatment”, the “No. of mice examined at p.m. at termination of experiment (70-75th week) with liver tumours” value was 0, the “No. of mice examined at p.m. at termination of experiment (70-75th week) with lung tumours” value was 3, the “No. of mice examined at p.m. at termination of experiment (70-75th week) with multiple liver tumours” value came to 0 and the “No. of mice examined at p.m. at termination of experiment (70-75th week) with multiple lung tumours” value is recorded as 1. Under “females, 60 µg, 1 treatment”, the “No. of mice examined at p.m. at termination of experiment (70-75th week) with other tumours” value amounted to 0, the “No. of mice examined at p.m. from 50-70th week with liver tumours” value came out at 0, the “No. of mice examined at p.m. from 50-70th week with lung tumours” value stood at 0 and the “No. of mice examined at p.m. from 50-70th week with other tumours” value is reported as 0. Under setting [1], the “No. of survivors at 50 weeks” value is reported as 27 and the “No. of survivors at 70 weeks” value worked out at 25. Where the note is “in the doses tested (3 x 100 µg or 1 x 60 µg)”, the “effect on the incidence of liver, lung or other tumours” value is listed as “without apparent effect”. Further, where the note is “males, 60 µg, 1 treatment”, the “No. of mice examined at p.m. at termination of experiment (70-75th week) with liver tumours” value came to 6, the “No. of mice examined at p.m. at termination of experiment (70-75th week) with lung tumours” value is 5, the “No. of mice examined at p.m. at termination of experiment (70-75th week) with multiple liver tumours” value stood at 1 and the “No. of mice examined at p.m. at termination of experiment (70-75th week) with multiple lung tumours” value was found to be 0. Also, where the note is “males, 60 µg, 1 treatment”, the “No. of mice examined at p.m. at termination of experiment (70-75th week) with other tumours” value was 0, the “No. of mice examined at p.m. from 50-70th week with liver tumours” value is 0, the “No. of mice examined at p.m. from 50-70th week with lung tumours” value was 0 and the “No. of mice examined at p.m. from 50-70th week with other tumours” value amounted to 0. Under setting [2], the “No. of survivors at 50 weeks” value is on record as 28 and the “No. of survivors at 70 weeks” value is 26.
As to `Cc1c2c(cc3ccccc13)-c1ccccc1C1OC21` (stereo not drawn) [7-Methylbenz(a)anthracene 5,6-oxide], where the note is “3 x 100 µg s.c., newborn”, the “incidence of lung tumours” value is reported as “slightly raised”. Further, under setting [3], the “No. of mice examined at p.m. at termination of experiment (70-75th week) with liver tumours” value was 0, the “No. of mice examined at p.m. at termination of experiment (70-75th week) with lung tumours” value is reported as 6, the “No. of mice examined at p.m. at termination of experiment (70-75th week) with multiple liver tumours” value was determined as 0 and the “No. of mice examined at p.m. at termination of experiment (70-75th week) with multiple lung tumours” value is on record as 3. Further, under setting [3], the “No. of mice examined at p.m. at termination of experiment (70-75th week) with other tumours” value is 0, the “No. of mice examined at p.m. from 50-70th week with liver tumours” value stood at 0, the “No. of mice examined at p.m. from 50-70th week with lung tumours” value was determined as 1 and the “No. of mice examined at p.m. from 50-70th week with other tumours” value was determined as 0. Under setting [4], the “No. of survivors at 50 weeks” value was determined as 25 and the “No. of survivors at 70 weeks” value is 22. Under setting [5], the “No. of mice examined at p.m. at termination of experiment (70-75th week) with liver tumours” value is 4, the “No. of mice examined at p.m. at termination of experiment (70-75th week) with lung tumours” value turned out to be 2, the “No. of mice examined at p.m. at termination of experiment (70-75th week) with multiple liver tumours” value amounted to 2 and the “No. of mice examined at p.m. at termination of experiment (70-75th week) with multiple lung tumours” value was 2. Moreover, under setting [5], the “No. of mice examined at p.m. at termination of experiment (70-75th week) with other tumours” value came to 0, the “No. of mice examined at p.m. from 50-70th week with liver tumours” value was 0, the “No. of mice examined at p.m. from 50-70th week with lung tumours” value was found to be 0 and the “No. of mice examined at p.m. from 50-70th week with other tumours” value was 0. In addition, under setting [6], the “No. of survivors at 50 weeks” value came to 20 and the “No. of survivors at 70 weeks” value worked out at 20.
Consider `Cc1c2ccccc2cc2c1ccc1ccccc12` [7-Methylbenz(a)anthracene, reference compound], for which the “incidence of lung tumours” value (3 x 100 µg s.c., newborn) is on record as “slightly raised”. Under setting [3], the “No. of mice examined at p.m. at termination of experiment (70-75th week) with liver tumours” value came to 0, the “No. of mice examined at p.m. at termination of experiment (70-75th week) with lung tumours” value was 1, the “No. of mice examined at p.m. at termination of experiment (70-75th week) with multiple liver tumours” value was 0 and the “No. of mice examined at p.m. at termination of experiment (70-75th week) with multiple lung tumours” value was 1. For the same compound, under setting [3], the “No. of mice examined at p.m. at termination of experiment (70-75th week) with other tumours” value stood at 1, the “No. of mice examined at p.m. from 50-70th week with liver tumours” value is given as 0, the “No. of mice examined at p.m. from 50-70th week with lung tumours” value was found to be 7 and the “No. of mice examined at p.m. from 50-70th week with other tumours” value came to 1. Moreover, under setting [4], the “No. of survivors at 50 weeks” value turned out to be 21 and the “No. of survivors at 70 weeks” value was determined as 10. Also, under setting [5], the “No. of mice examined at p.m. at termination of experiment (70-75th week) with liver tumours” value is recorded as 1, the “No. of mice examined at p.m. at termination of experiment (70-75th week) with lung tumours” value was found to be 3, the “No. of mice examined at p.m. at termination of experiment (70-75th week) with multiple liver tumours” value turned out to be 1 and the “No. of mice examined at p.m. at termination of experiment (70-75th week) with multiple lung tumours” value came to 3. Moreover, under setting [5], the “No. of mice examined at p.m. at termination of experiment (70-75th week) with other tumours” value is given as 1, the “No. of mice examined at p.m. from 50-70th week with liver tumours” value is 11, the “No. of mice examined at p.m. from 50-70th week with lung tumours” value is 10 and the “No. of mice examined at p.m. from 50-70th week with other tumours” value was determined as 0. Besides, under setting [6], the “No. of survivors at 50 weeks” value was found to be 23 and the “No. of survivors at 70 weeks” value is recorded as 4. Moreover, the “activity in increasing the incidence of liver tumours in males compared with K region epoxide” value (neonatally injected, 3 x 100 µg) is “more active than its K region epoxide”.
For the compound `c1ccc2c(c1)-c1ccc3ccccc3c1C1OC21` (stereo not drawn) [Chrysene 5,6-oxide], under “3 x 100 µg s.c., newborn”, the liver tumour incidence result was “increased”. In addition, under setting [3], the “No. of mice examined at p.m. at termination of experiment (70-75th week) with liver tumours” value turned out to be 1, the “No. of mice examined at p.m. at termination of experiment (70-75th week) with multiple liver tumours” value is 0, the “No. of mice examined at p.m. at termination of experiment (70-75th week) with multiple lung tumours” value came out at 0 and the “No. of mice examined at p.m. at termination of experiment (70-75th week) with other tumours” value is 0. Also, under setting [3], the “No. of mice examined at p.m. from 50-70th week with liver tumours” value is 0, the “No. of mice examined at p.m. from 50-70th week with lung tumours” value stood at 0 and the “No. of mice examined at p.m. from 50-70th week with other tumours” value is 0. Besides, under setting [4], the “No. of survivors at 50 weeks” value was 22 and the “No. of survivors at 70 weeks” value is 20. For the same compound, under setting [5], the “No. of mice examined at p.m. at termination of experiment (70-75th week) with liver tumours” value worked out at 8, the “No. of mice examined at p.m. at termination of experiment (70-75th week) with lung tumours” value is listed as 0, the “No. of mice examined at p.m. at termination of experiment (70-75th week) with multiple liver tumours” value worked out at 3 and the “No. of mice examined at p.m. at termination of experiment (70-75th week) with multiple lung tumours” value came to 0. In addition, under setting [5], the “No. of mice examined at p.m. at termination of experiment (70-75th week) with other tumours” value is 0, the “No. of mice examined at p.m. from 50-70th week with liver tumours” value was 0, the “No. of mice examined at p.m. from 50-70th week with lung tumours” value was found to be 0 and the “No. of mice examined at p.m. from 50-70th week with other tumours” value is listed as 0. Under setting [6], the “No. of survivors at 50 weeks” value is listed as 23 and the “No. of survivors at 70 weeks” value turned out to be 21.
